Earlier results as cited in patent publication US20080226719A1, “Combination of Rosiglitazone and Donepezil for Improvement of Cognitive Function” (priority 2005, published 2008).
Where two headings read alike, the source gives them in different places.

Assays:
patients with AD = settings: cited from earlier work
[1] = test system: individuals with mild cognitive impairment; settings: cited from earlier work; for rate at which patients developed AD: mild cognitive impairment

SMILES	patients unchanged or worse (patients with AD; APOE4 carriers with AD, after 30 weeks) [%]	patients showing an improvement in cognitive function (patients with AD; non-APOE4 carriers with AD) [%]	risk of progressing to AD compared to placebo ([1]; carriers of one or two copies of an APOE4 allele, after three years)	rate at which patients developed AD ([1]; at three years, versus placebo)	rate at which patients developed AD ([1]; first twelve months of administration)
Nc1c2c(nc3ccccc13)CCCC2 [tacrine]	60	83			
COc1cc2c(cc1OC)C(=O)C(CC1CCN(Cc3ccccc3)CC1)C2 (centres unmarked) [donepezil]			reduced risk of progressing to AD	no separation between groups	reduce the rate at which patients developed AD
